The subject of this test is BDF1 mice, Adenocarcinoma 755 s.c., tumor weight T/C. The test is described as follows: NCI In Vivo Anticancer Drug Screen. Data for tumor model Adenocarcinoma 755 (subcutaneous) in B6D2F1 (BDF1) mice. As to conditions: endpoint: mean tumor weight, higher = larger tumour. Here is the method:
The antitumor activity of compounds was measured in mice bearing transplantable tumors. Survival or tumor size were measured and the results are expressed as the measurement made in the treated group (T) divided by the measurement made in the vehicle treated control group (C). The tumor model used in this assay is Adenocarcinoma 755 (subcutaneous) in B6D2F1 (BDF1) mice

The mark [1] stands for this setting: dose: 30.0 mg/kg/injection, schedule: Q01DX011 (ip), vehicle: carboxymethylcellulose (CMC).
Where [2] appears, read: dose: 60.0 mg/kg/injection, schedule: Q01DX011 (ip), vehicle: carboxymethylcellulose (CMC).
[3] abbreviates: dose: 120.0 mg/kg/injection, schedule: Q01DX011 (ip), vehicle: carboxymethylcellulose (CMC).
Where [4] appears, read: dose: 240.0 mg/kg/injection, schedule: Q01DX011 (ip), vehicle: carboxymethylcellulose (CMC).
The mark [5] stands for this setting: dose: 2.0 mg/kg/injection, schedule: Q01DX011 (ip), vehicle: saline.
Setting [6] is: dose: 25.0 mg/kg/injection, schedule: Q01DX011 (ip), vehicle: methylcellulose (MC).

Several values for one entry are separate records, joined by “and”; a condition that tells them apart may be missing. Equal entries are not always repeated.

As a reminder, the T/C is the result in the treated group divided by that in the control group, in per cent.

Regarding `CC(=O)OCC1OC(n2cnc3c(Cl)nc(N)nc32)C(OC(C)=O)C1OC(C)=O` (stereo not drawn), the T/C runs as follows: under setting [1], 114 % of control; under setting [2], 118 % of control; under setting [3], 78 % of control; under setting [4], 72 % of control.

Turning to `CC(=O)OCC(=O)[C@@]1(O)CC[C@H]2[C@@H]3CCC4=CC(=O)[C@H](C)C[C@]4(C)[C@@]3(F)[C@@H](O)C[C@@]21C`, the T/C reads like this: (dose: 3.75 mg/kg/injection, schedule: Q01DX011 (sc), vehicle: steriod suspending solution) 65 % of control; (dose: 7.5 mg/kg/injection, schedule: Q01DX011 (sc), vehicle: steriod suspending solution) 29 % of control; (dose: 15.0 mg/kg/injection, schedule: Q01DX011 (sc), vehicle: steriod suspending solution) 20 % of control; (dose: 30.0 mg/kg/injection, schedule: Q01DX011 (sc), vehicle: steriod suspending solution) 9 % of control.

Consider `COc1cc2c(c(OC)c1OC)-c1ccc(N)c(=O)cc1[C@@H](NC(C)=O)CC2`, for which the T/C is, setting by setting: (dose: 0.5 mg/kg/injection, schedule: Q01DX011 (ip), vehicle: saline) 98 % of control; under setting [5], 32 % of control and 47 % of control; (dose: 4.0 mg/kg/injection, schedule: Q01DX011 (ip), vehicle: saline) 15 % of control and 37 % of control.

For the compound `C/C(=N\NC(=O)c1ccncc1)c1ccc(Br)cc1`, the T/C by setting is: (dose: 30.0 mg/kg/injection, schedule: Q01DX011 (ip), vehicle: methylcellulose (MC)) 44 % of control and 49 % of control; (dose: 120.0 mg/kg/injection, schedule: Q01DX011 (ip), vehicle: methylcellulose (MC)) 48 % of control and 50 % of control; (dose: 240.0 mg/kg/injection, schedule: Q01DX011 (ip), vehicle: methylcellulose (MC)) 32 % of control and 52 % of control; (dose: 500.0 mg/kg/injection, schedule: Q01DX011 (ip), vehicle: methylcellulose (MC)) 54 % of control.

With `Cn1c(=O)c2c(nc(C(=N)SCC(=O)O)n2C)n(C)c1=O`, the T/C under setting [6] is 61 % of control.

Consider `O=C([O][Hg][CH2]C1CC(O)CC([CH2][Hg][O]C(=O)c2ccccc2)O1)c1ccccc1` (stereo not drawn), for which the T/C (dose: 25.0 mg/kg/injection, schedule: Q01DX011 (ip), vehicle: carboxymethylcellulose (CMC)) is 83 % of control and the T/C (dose: 50.0 mg/kg/injection, schedule: Q01DX011 (ip), vehicle: carboxymethylcellulose (CMC)) is 33 % of control.

Regarding `NC(=O)c1ccccc1Nc1ccc([N+](=O)[O-])cc1[N+](=O)[O-]`, the T/C was 102 % of control (dose: 34.0 mg/kg/injection, schedule: Q01DX011 (ip), vehicle: carboxymethylcellulose (CMC)) and 115 % of control (dose: 100.0 mg/kg/injection, schedule: Q01DX011 (ip), vehicle: carboxymethylcellulose (CMC)).

In the case of `CCOC(=O)c1c(C#N)c(Cl)nc(C)c1[N+](=O)[O-]`, the T/C is, setting by setting: (dose: 1.5 mg/kg/injection, schedule: Q01DX011 (ip), vehicle: carboxymethylcellulose (CMC)) 60 % of control; (dose: 3.0 mg/kg/injection, schedule: Q01DX011 (ip), vehicle: carboxymethylcellulose (CMC)) 70 % of control.

As for `CCCC(=O)OCC1OC(n2cnc3c(=S)nc(N)[nH]c32)C(OC(=O)CCC)C1OC(=O)CCC` (stereo not drawn), the T/C by setting is: (dose: 0.16 mg/kg/injection, schedule: Q01DX011 (ip), vehicle: saline) 57 % of control; (dose: 0.38 mg/kg/injection, schedule: Q01DX011 (ip), vehicle: saline) 88 % of control; (dose: 0.58 mg/kg/injection, schedule: Q01DX011 (ip), vehicle: saline) 82 % of control; (dose: 1.3 mg/kg/injection, schedule: Q01DX011 (ip), vehicle: saline) 31 % of control; under setting [5], 18 % of control; (dose: 3.0 mg/kg/injection, schedule: Q01DX011 (ip), vehicle: saline) 4 % of control. Further, the T/C is, setting by setting: (dose: 6.0 mg/kg/injection, schedule: Q01DX011 (ip), vehicle: carboxymethylcellulose (CMC)) 2 % of control and 11 % of control; (dose: 12.0 mg/kg/injection, schedule: Q01DX011 (ip), vehicle: carboxymethylcellulose (CMC)) 2 % of control and 3 % of control; (dose: 24.0 mg/kg/injection, schedule: Q01DX011 (ip), vehicle: carboxymethylcellulose (CMC)) 1 % of control.

As to `Cc1nnc2ncnc(N)c2n1`, the T/C under setting [1] is 46 % of control.

`O=C(O)CCC(=O)CCl`: where the note is “dose: 34.0 mg/kg/injection, schedule: Q01DX011 (ip), vehicle: methylcellulose (MC)”, the T/C is 46 % of control.

Consider `CSc1nc(N)c(NC=O)c(=O)n1C`, for which the T/C is, setting by setting: (dose: 25.0 mg/kg/injection, schedule: Q01DX011 (ip), vehicle: saline) 118 % of control; (dose: 75.0 mg/kg/injection, schedule: Q01DX011 (ip), vehicle: saline) 66 % of control.

For the compound `C[C@@H]1CC2=CC(=O)C=C[C@]2(C)[C@H]2CC[C@@]3(C)[C@@H](CC[C@]3(C)O)[C@H]12`, the T/C was 16 % of control (dose: 400.0 mg/kg/injection, schedule: Q01DX011 (sc), vehicle: steriod suspending solution) and 33 % of control (dose: 800.0 mg/kg/injection, schedule: Q01DX011 (sc), vehicle: steriod suspending solution).

As to `CC(C)n1cnc2c(Cl)ncnc21`, the T/C by setting is: (dose: 4.0 mg/kg/injection, schedule: Q01DX011 (ip), vehicle: carboxymethylcellulose (CMC)) 101 % of control; (dose: 8.0 mg/kg/injection, schedule: Q01DX011 (ip), vehicle: carboxymethylcellulose (CMC)) 115 % of control; (dose: 16.0 mg/kg/injection, schedule: Q01DX011 (ip), vehicle: carboxymethylcellulose (CMC)) 92 % of control; (dose: 62.0 mg/kg/injection, schedule: Q01DX011 (ip), vehicle: carboxymethylcellulose (CMC)) 4 % of control and 11 % of control; (dose: 125.0 mg/kg/injection, schedule: Q01DX011 (ip), vehicle: carboxymethylcellulose (CMC)) 5 % of control and 8 % of control; (dose: 250.0 mg/kg/injection, schedule: Q01DX011 (ip), vehicle: carboxymethylcellulose (CMC)) 8 % of control.

In the case of `NC(=O)OCCI`, the T/C (dose: 3.1 mg/kg/injection, schedule: Q01DX011 (ip), vehicle: methylcellulose (MC)) is 47 % of control; the T/C (dose: 12.5 mg/kg/injection, schedule: Q01DX011 (ip), vehicle: methylcellulose (MC)) was 52 % of control and 61 % of control; the T/C under setting [6] is 31 % of control and 47 % of control; the T/C (dose: 50.0 mg/kg/injection, schedule: Q01DX011 (ip), vehicle: methylcellulose (MC)) is 7 % of control; the T/C (dose: 100.0 mg/kg/injection, schedule: Q01DX011 (ip), vehicle: methylcellulose (MC)) is 1 % of control.

In the case of `CCCCCCCCSc1ncnc2c1ncn2CCCC`, the T/C was 92 % of control (dose: 93.0 mg/kg/injection, schedule: Q01DX011 (ip), vehicle: saline); 97 % of control (dose: 250.0 mg/kg/injection, schedule: Q01DX011 (ip), vehicle: saline); 77 % of control (dose: 375.0 mg/kg/injection, schedule: Q01DX011 (ip), vehicle: saline).

Turning to `O=C(Nc1ccc(N=Nc2ccc(O)c(C(=O)O)c2)c(S(=O)(=O)O)c1)c1ccc(C(=O)Nc2ccc(N=Nc3ccc(O)c(C(=O)O)c3)c(S(=O)(=O)O)c2)cc1`, the T/C is 82 % of control under setting [1], 64 % of control under setting [2], 70 % of control under setting [3] and 42 % of control under setting [4].

With `CC(=O)CSc1nc(N)nc2nc[nH]c12`, the T/C is, setting by setting: (dose: 3.9 mg/kg/injection, schedule: Q01DX011 (ip), vehicle: methylcellulose (MC)) 32 % of control; (dose: 7.8 mg/kg/injection, schedule: Q01DX011 (ip), vehicle: methylcellulose (MC)) 6 % of control; (dose: 15.6 mg/kg/injection, schedule: Q01DX011 (ip), vehicle: methylcellulose (MC)) 7 % of control.
